Assay results from patent publication US20130029334A1, “mRNA As Biomarkers For Liver Injury or Other Liver Perturbations” (priority 2010, published 2013).
“And” between values parts separate entries of the source, which are not always exact repeats. Identical values can stand only once. Like-named read-outs stand apart in the source and are kept apart here.

Columns and labels:
rats [1] = test: Alb, Fgb, Hp mRNA expression in liver of treated rats (FIG. 2); type: in vivo, rat
Protocol: FIG. 2 is a graph showing a log2 fold change in expression of Alb, Fgb, and Hp mRNA (detected as cDNA), respectively, in liver of rats treated with DGAL, or with acetaminophen (APAP), as compared to references values determined from rats not treated with DGAL (Control; solid black boxes) or APAP (Control; solid black boxes), respectively.
At 48 hours, Hp mRNA levels were increased by 9, 54 and 86 fold over controls, respectively, at 100, 700, and 1400 mg/kg APAP; while Alb mRNA levels were increased by 13 and 31 fold at 700 and 1400 mg/kg.

rats [2] = test: Whole genome microarray analysis of plasma mRNA of treated rats; type: in vivo, rat; settings: 24 h; for number of mRNA biomarkers differentially expressed: 2-fold change, false discovery rate <0.05
Source text: In this example, illustrated is whole genome microarray analysis, which can be used to reveal treatment-specific transcriptomic profiles following liver injury or liver enzyme induction. […] Total RNA was isolated from the 14,000×g plasma pellet from rats treated with DGAL or APAP. […] Next, this fragmented product was labeled via enzymatic attachment of a biotin-labeled nucleotide that contained an indicator molecule comprising a fluorophore. After this labeled cDNA was hybridized and bound to the oligonucleotides on the microarray, any unbound cDNA was washed away and the microarrays were scanned. During this process, the microarray chips were scanned at a wavelength that allowed the indicator molecule to fluoresce (the excitation wavelength). The level of mRNA biomarker was determined from the level of fluorescence (e.g., correlating to the amount of labeled cDNA hybridized to the microarray) using standard techniques. Data on measurement of mRNA biomarkers (which also may be representative of gene expression induced as a result of liver perturbation) was preprocessed using GC-RMA and log2-transformed. The probe-level microarray data was checked for quality using various graphical and statistical means. Arrays showing low quality RNA or poor amplification were excluded from the analysis. To evaluate the ability of whole genome microarray analysis using plasma mRNA to discriminate between DGAL- and APAP-induced liver perturbation, a one-way analysis of variance and individual t-tests were then used to identify which individual mRNA biomarkers were statistically altered between the two treatment groups. A false-discovery rate correction was used for multiple comparisons. Analysis software was utilized to identify networks of interacting genes and other functional groups using gene lists generated.

rats [3] = settings: 48 hours
Protocol: (§1) In this example, to model a drug causing liver perturbation (such as injury or hepatotoxicity), hepatotoxicant D-galactosamine (“DGAL”) was administered to rats. Male Sprague-Dawley rats were administered DGAL at 0 (sterile PBS) or 1000 mg/kg intraperitoneally, and sacrificed after 24 hours. […] Blood was harvested from DGAL-treated rats, and serum liver enzymes were measured using a standard laboratory assay.
(§2) In this example, to exemplify a drug causing liver injury, drug acetaminophen (“APAP”) was administered to rats. Rats were administered APAP at 0, 100, 700, and 1400 mg/kg by gavage, and then sacrificed at 6, 24 or 48 hours after treatment. Hematoxylin and eosin-stained liver sections were examined by an accredited pathologist and scored for incidence and severity of hepatocellular necrosis.

rats [4] = settings: rat, in vivo
Protocol: as §1, §2
Using methods described previously herein, liver enzymes including serum ALT and AST levels, and plasma mRNA levels, were also assessed to determine hepatotoxicity following APAP administration.
Rats were treated with skeletal muscle toxicant bupivacaine (“BPVC”). For BPVC treatment, rats were administered 0.5 mL sterile saline or 0.5% w/v sterile solution of BPVC in saline once into both the right and left tibialis anterior muscles. […] To compare the specificity of circulating liver mRNAs with AST and ALT following skeletal muscle injury, rats were treated with BPVC, and then serum enzymes and circulating liver mRNAs were measured 24 hours after treatment.

[5] = APAP 1400 mg/kg treatment group
[6] = rat plasma, APAP 1400 mg/kg gavage

CC(=O)Nc1ccc(O)cc1 [APAP, acetaminophen]
expression of Alb mRNA in liver (rats [1]; [5]): significant decrease
expression of Hp mRNA in liver (rats [1]; [5]): significant decrease
number of mRNA biomarkers differentially expressed (rats [2]; APAP 1400 mg/kg gavage): 1374
CYP450-related mRNAs in plasma (rats [2]; APAP 1400 mg/kg gavage): No increases
Fold increase Adam10 (rats [2]; [6]): 14 fold
Fold increase Akt3 (rats [2]; [6]): 4 fold
Fold increase Angpt1 (rats [2]; [6]): 23 fold
Fold increase Arhgef12 (rats [2]; [6]): Arhgef12 (12); F2RI2 (12) fold
Fold increase B2M (rats [2]; [6]): B2M (3) fold
Fold increase Calr (rats [2]; [6]): 3 fold
Fold increase Dapp1 (rats [2]; [6]): 5 fold
Fold increase F2RI2 (rats [2]; [6]): Arhgef12 (12); F2RI2 (12) fold
Fold increase Fcgr2b (rats [2]; [6]): 7 fold
Fold increase Grin1 (rats [2]; [6]): 10 fold
Fold increase Gsk3b (rats [2]; [6]): Gsk3b (6) fold
Fold increase Hla-C (rats [2]; [6]): 23 fold
Fold increase Hla-E1 (rats [2]; [6]): 9 fold
Fold increase Itga6 (rats [2]; [6]): 19 fold
Fold increase Itgav (rats [2]; [6]): Itgav (12) fold
Fold increase Itgb1 (rats [2]; [6]): 17 fold
Fold increase Jak2 (rats [2]; [6]): 13 fold
Fold increase Lyn (rats [2]; [6]): 10 fold
Fold increase Mapk1 (rats [2]; [6]): 15 fold
Fold increase Nck2 (rats [2]; [6]): 8 fold
Fold increase Pdia3 (rats [2]; [6]): Canx (5); Pdia3 (5); fold
Fold increase Prkc (rats [2]; [6]): 4 fold
Fold increase Prkcq (rats [2]; [6]): 3 fold
Fold increase Psap (rats [2]; [6]): 20 fold
Fold increase Rac1 (rats [2]; [6]): 4 fold
Fold-Change Alb mRNA (first listing) (rats [2]; [6]): 102.57 fold and 103 fold
Fold-Change Alb mRNA (second listing) (rats [2]; [6]): 11.26 fold
Fold-Change Arhgap28 mRNA (rats [2]; [6]): 23.18 fold
Fold-Change C2cd21 mRNA (rats [2]; [6]): 21.52 fold
Fold-Change Ccl2 mRNA (rats [2]; [6]): 79.83 fold
Fold-Change Ceacam1 mRNA (rats [2]; [6]): 28.57 fold
Fold-Change Cxcl2 mRNA (rats [2]; [6]): 68.29 fold
Fold-Change Cxcl7 mRNA (rats [2]; [6]): 37.96 fold
Fold-Change Cxcl12 mRNA (rats [2]; [6]): 30.90 fold and 31 fold
Fold-Change Fam183b mRNA (rats [2]; [6]): 26.31 fold
Fold-Change G1p2 mRNA (rats [2]; [6]): 17.16 fold
Fold-Change Galnt1 mRNA (rats [2]; [6]): 22.06 fold
Fold-Change Gpnmb mRNA (rats [2]; [6]): 6.10 fold
Fold-Change Hspa1a mRNA (rats [2]; [6]): 40.60 fold
Fold-Change Hspa1b mRNA (rats [2]; [6]): 21.07 fold
Fold-Change Kcnab1 mRNA (rats [2]; [6]): 24.65 fold
Fold-Change LOC259245 mRNA (rats [2]; [6]): 4.94 fold
Fold-Change Lta4h mRNA (rats [2]; [6]): 6.27 fold
Fold-Change Mt2a mRNA (rats [2]; [6]): 16.40 fold
Fold-Change Pde5a mRNA (rats [2]; [6]): 24.18 fold
Fold-Change Pgrmc1 mRNA (rats [2]; [6]): 2.82 fold
Fold-Change Prdx5 mRNA (rats [2]; [6]): 2.57 fold
Fold-Change Ptprj mRNA (rats [2]; [6]): 61.43 fold
Fold-Change RT1-A2 mRNA (rats [2]; [6]): 22.73 fold
Fold-Change Rbp4 mRNA (rats [2]; [6]): 20.44 fold
Fold-Change Serpina1 mRNA (rats [2]; [6]): 24.15 fold
Fold-Change Slc24a3 mRNA (rat SEQ ID NO: 47) (rats [2]; [6]): 25.57 fold
Fold-Change Slc24a3 mRNA (rat SEQ ID NO: 57) (rats [2]; [6]): 22.11 fold
Fold-Change Srxn1 mRNA (rats [2]; [6]): 21.98 fold
Fold-Change St3gal2 mRNA (rats [2]; [6]): 21.94 fold
Fold-Change Tuba4a mRNA (rats [2]; [6]): 4.21 fold
Fold-Change Vcl mRNA (rats [2]; [6]): 70.40 fold and 70 fold
Fold-Change Xpo5 mRNA (rats [2]; [6]): 30.54 fold
mortality (rats [3]; APAP 700 mg/kg gavage): one rat
mortality (rats [3]; APAP 1400 mg/kg gavage): one rat

CCCCN1CCCCC1C(=O)Nc1c(C)cccc1C (stereo not shown) [BPVC, bupivacaine]
ALT (rats [4]): 73.70 ± 4.69 U/L
AST (rats [4]): 368.25 ± 31.81 U/L
elevation in serum ALT (rats [4]): 1.96 ×
elevation in serum AST (rats [4]): 3.58 ×

N[C@H]1C(O)O[C@H](CO)[C@H](O)[C@@H]1O (stereo partly drawn) [DGAL, D-(+)-galactosamine]
expression of Alb mRNA in liver (rats [1]; DGAL-treated rats): small but statistically insignificant decrease
expression of Fgb mRNA in liver (rats [1]; DGAL-treated rats): significant decrease
expression of Hp mRNA in liver (rats [1]; DGAL-treated rats): significant decrease
number of mRNA biomarkers differentially expressed (rats [2]; DGAL 1000 mg/kg ip): 804
Fold increase Aadat (rats [2]; rat plasma, DGAL 1000 mg/kg ip): 3 fold
Fold increase Apoc2 (rats [2]; rat plasma, DGAL 1000 mg/kg ip): 23 fold
Fold increase C9 (rats [2]; rat plasma, DGAL 1000 mg/kg ip): 10 fold
Fold increase Cf1h (rats [2]; rat plasma, DGAL 1000 mg/kg ip): 14 fold
Fold increase Cfb (rats [2]; rat plasma, DGAL 1000 mg/kg ip): 13 fold
Fold increase Cfi (rats [2]; rat plasma, DGAL 1000 mg/kg ip): 25 fold
Fold increase Cyp2a2 (rats [2]; rat plasma, DGAL 1000 mg/kg ip): 15 fold
Fold increase Cyp2c9 (rats [2]; rat plasma, DGAL 1000 mg/kg ip): 32 fold
Fold increase Cyp3a2 (rats [2]; rat plasma, DGAL 1000 mg/kg ip): 26 fold
Fold increase Cyp3a4 (rats [2]; rat plasma, DGAL 1000 mg/kg ip): 26 fold
Fold increase Cyp4f12 (rats [2]; rat plasma, DGAL 1000 mg/kg ip): 13 fold
Fold increase F2 (rats [2]; rat plasma, DGAL 1000 mg/kg ip): 14 fold
Fold increase Fga (rats [2]; rat plasma, DGAL 1000 mg/kg ip): 28 fold
Fold increase Mettl7b (rats [2]; rat plasma, DGAL 1000 mg/kg ip): Mettl7b (9) fold
Fold increase Pla2g4a (rats [2]; rat plasma, DGAL 1000 mg/kg ip): 7 fold
Fold increase Plg (rats [2]; rat plasma, DGAL 1000 mg/kg ip): 17 fold
Fold increase Serping1 (rats [2]; rat plasma, DGAL 1000 mg/kg ip): 7 fold
Fold-Change Alb mRNA (first listing) (rats [2]; rat plasma, DGAL 1000 mg/kg ip): 83.32 fold and 83 fold
Fold-Change Alb mRNA (second listing) (rats [2]; rat plasma, DGAL 1000 mg/kg ip): 77.08 fold
Fold-Change Ambp mRNA (rats [2]; rat plasma, DGAL 1000 mg/kg ip): 111.24 fold and 111 fold
Fold-Change Apoa1 mRNA (rats [2]; rat plasma, DGAL 1000 mg/kg ip): 53.34 fold and 53 fold
Fold-Change Apoc1 mRNA (rats [2]; rat plasma, DGAL 1000 mg/kg ip): 35.57 fold and 36 fold
Fold-Change Apoc3 mRNA (rats [2]; rat plasma, DGAL 1000 mg/kg ip): 58.09 fold
Fold-Change Apoh mRNA (rats [2]; rat plasma, DGAL 1000 mg/kg ip): 39.84 fold
Fold-Change Ccl2 mRNA (rats [2]; rat plasma, DGAL 1000 mg/kg ip): 25.35 fold
Fold-Change Cyp2c7 mRNA (rats [2]; rat plasma, DGAL 1000 mg/kg ip): 102.92 fold and 103 fold
Fold-Change Cyp2c13 mRNA (rats [2]; rat plasma, DGAL 1000 mg/kg ip): 40.38 fold and 40 fold
Fold-Change Fgg mRNA (rats [2]; rat plasma, DGAL 1000 mg/kg ip): 65.02 fold and 65 fold
Fold-Change Fgl1 mRNA (rats [2]; rat plasma, DGAL 1000 mg/kg ip): 52.04 fold
Fold-Change G1p2 mRNA (rats [2]; rat plasma, DGAL 1000 mg/kg ip): 5.78 fold
Fold-Change Gc mRNA (rats [2]; rat plasma, DGAL 1000 mg/kg ip): 42.82 fold
Fold-Change Gpnmb mRNA (rats [2]; rat plasma, DGAL 1000 mg/kg ip): 4.04 fold
Fold-Change Itih1 mRNA (rats [2]; rat plasma, DGAL 1000 mg/kg ip): 52.97 fold
Fold-Change Itih3 mRNA (rats [2]; rat plasma, DGAL 1000 mg/kg ip): 40.88 fold
Fold-Change Kng1 mRNA (rats [2]; rat plasma, DGAL 1000 mg/kg ip): 45.12 fold
Fold-Change LOC259245 mRNA (rats [2]; rat plasma, DGAL 1000 mg/kg ip): 11.52 fold
Fold-Change Lta4h mRNA (rats [2]; rat plasma, DGAL 1000 mg/kg ip): 3.40 fold
Fold-Change Mt2a mRNA (rats [2]; rat plasma, DGAL 1000 mg/kg ip): 18.20 fold
Fold-Change Mug1 mRNA (rats [2]; rat plasma, DGAL 1000 mg/kg ip): 108.00 fold
Fold-Change Obp3 mRNA (rats [2]; rat plasma, DGAL 1000 mg/kg ip): 96.26 fold
Fold-Change Pgrmc1 mRNA (rats [2]; rat plasma, DGAL 1000 mg/kg ip): 3.12 fold
Fold-Change Prdx5 mRNA (rats [2]; rat plasma, DGAL 1000 mg/kg ip): 2.03 fold
Fold-Change Rbp4 mRNA (rats [2]; rat plasma, DGAL 1000 mg/kg ip): 36.82 fold
Fold-Change Serpina1 mRNA (rats [2]; rat plasma, DGAL 1000 mg/kg ip): 12.61 fold
Fold-Change Serpina3k mRNA (rats [2]; rat plasma, DGAL 1000 mg/kg ip): 36.42 fold
Fold-Change Spp2 mRNA (rats [2]; rat plasma, DGAL 1000 mg/kg ip): 34.78 fold
Fold-Change Ttr mRNA (rats [2]; rat plasma, DGAL 1000 mg/kg ip): 60.61 fold and 61 fold
Fold-Change Tuba4a mRNA (rats [2]; rat plasma, DGAL 1000 mg/kg ip): 2.24 fold
Fold-Change Vtn mRNA (rats [2]; rat plasma, DGAL 1000 mg/kg ip): 57.99 fold
